Several values for one entry are separate records, joined by “and”; a condition that tells them apart may be missing. Equal values may be shown once.
Key:
[1] = target: PctB-LBD (Pseudomonas aeruginosa, UniProt Q9HW91); assay: ITC binding to PctB-LBD; details: 700 μM DPD/AI-2 into 70 μM PctB-LBD, minor heats, not certain whether they reflect binding
Protocol: (§1) ITC experiments were performed at 20 °C using a Nano ITC Standard Volume isothermal calorimeter (TA Instruments, New Castle, DE). […] The stirring speed was 200 r.p.m. and 25 injections were used each experiment. Three independent experiments were performed for each sample. […] ITC data were analyzed and fit with a one-site independent binding model using the NanoAnalyze software version 3.4 provided by the manufacturer, with the heat of dilution subtracted from the experimental titrations before data analysis.

[2] = tested on: rpHK1S-Z16; assay: in vitro DGC activity assay, c-di-GMP synthesis (HPLC); type: biochemical, R. palustris; details: 100 μM GTP, 30 °C
Protocol: The DGC activity of rpHK1S-Z16 was determined by measuring the synthesis of c-di-GMP using an HPLC-based method. […] The reaction was initiated by adding 100 μM GTP and the reaction was allowed to proceed for 0, 30 and 60 min at 30 °C. At indicated time points, 50 μl aliquots were removed and heated at 100 °C for 5 min. Denatured proteins were removed through centrifugation and the supernatants were filtered through a 0.22 μm membrane. Samples were injected into an HPLC (Agilent 1260 infinity II) system equipped with a C18 reversed-phase column and a UV detector. Components were eluted isocratically with 98% A (150 mM Na2HPO4, pH 5.2) and 2% B (acetonitrile) in 15 min at a flow rate of 1 ml min^−1. The detection wavelength was 252 nm. GTP (Sigma, Cat# G8877) and c-di-GMP (Sigma, Cat# SML1228) were run as standards. The levels of synthesized c-di-GMP in the supernatants were determined from the standard curve obtained using known concentrations of c-di-GMP.

[3] = target: T1, PctA-LBD R126A (Pseudomonas aeruginosa, UniProt G3XD24, R126A); assay: biochemical; type: binding; details: PctA-LBD R126A 70 μM; DPD/AI-2 700 μM
T1 construct: Amino acids 30-278 and 36-360 of PctA and TlpQ, respectively; His6 (N, cleaved yes); made in house; host or cells: E. coli BL21(DE3) (pET-28a derivative)

[4] = tested on: P. aeruginosa PAO1; assay: quantitative capillary chemotaxis assay
[5] = target: T2, PctA-LBD (Pseudomonas aeruginosa, UniProt G3XD24); assay: ITC binding to PctA-LBD; parameters: species or system P. aeruginosa; details: 700 μM DPD/AI-2 into 70 μM PctA-LBD (WT); 20 °C; normal conditions; mean ± s.d. of three in text/figure, single experiments in source data
T2 construct: Amino acids 30-278 and 36-360 of PctA and TlpQ, respectively; His6 (N, cleaved yes); made in house; host or cells: E. coli BL21(DE3) (pET-28a derivative)

[6] = target: T3, PctA-LBD M111A (Pseudomonas aeruginosa, UniProt G3XD24, M111A); assay: biochemical; type: binding; details: PctA-LBD M111A 70 μM; DPD/AI-2 700 μM
T3 construct: Amino acids 30-278 and 36-360 of PctA and TlpQ, respectively; His6 (N, cleaved yes); made in house; host or cells: E. coli BL21(DE3) (pET-28a derivative)

[7] = target: T4, PctA-LBD W128A (Pseudomonas aeruginosa, UniProt G3XD24, W128A); assay: biochemical; type: binding; details: PctA-LBD W128A 70 μM; DPD/AI-2 700 μM
T4 construct: Amino acids 30-278 and 36-360 of PctA and TlpQ, respectively; His6 (N, cleaved yes); made in house; host or cells: E. coli BL21(DE3) (pET-28a derivative)

[8] = target: LsrB; details: established receptor LsrB; cited from earlier work
[9] = target: T5, KinD-LBD (Bacillus subtilis, UniProt O31671); assay: ITC binding to KinD-LBD; parameters: species or system B. subtilis; details: 700 μM DPD/AI-2 into 70 μM KinD-LBD
T5 construct: the LBD of HK KinD from B. subtilis; His6 (N, cleaved yes); made in house; host or cells: E. coli BL21(DE3) (pET-28a derivative)

[10] = target: LuxP; parameters: method as in PMID 18215018; details: established receptor LuxP; cited from earlier work
[11] = target: T6, PctB-LBDE146D (Pseudomonas aeruginosa, UniProt Q9HW91, E146D); assay: biochemical; type: binding; details: 700 μM DPD/AI-2 into 70 μM PctB-LBD E146D
T6 construct: the dCACHE-type LBDs of PctB and PctC; His6 (N, cleaved yes); made in house; host or cells: E. coli BL21(DE3) (pET-28a derivative)

[12] = target: T7, PctC-LBDF147Y (Pseudomonas aeruginosa, UniProt Q9HW93, F147Y); assay: biochemical; type: binding; details: 700 μM DPD/AI-2 into 70 μM PctC-LBD F147Y
T7 construct: the dCACHE-type LBDs of PctB and PctC; His6 (N, cleaved yes); made in house; host or cells: E. coli BL21(DE3) (pET-28a derivative)

[13] = target: T8, PctA-LBD Y144A (Pseudomonas aeruginosa, UniProt G3XD24, Y144A); assay: biochemical; type: binding; details: PctA-LBD Y144A 70 μM; DPD/AI-2 700 μM
T8 construct: Amino acids 30-278 and 36-360 of PctA and TlpQ, respectively; His6 (N, cleaved yes); made in house; host or cells: E. coli BL21(DE3) (pET-28a derivative)

[14] = target: PctC-LBD (Pseudomonas aeruginosa, UniProt Q9HW93); assay: ITC binding to PctC-LBD; details: 700 μM DPD/AI-2 into 70 μM PctC-LBD, minor heats, not certain whether they reflect binding
Sequence of PctC-LBD (Q9HW93 32-279): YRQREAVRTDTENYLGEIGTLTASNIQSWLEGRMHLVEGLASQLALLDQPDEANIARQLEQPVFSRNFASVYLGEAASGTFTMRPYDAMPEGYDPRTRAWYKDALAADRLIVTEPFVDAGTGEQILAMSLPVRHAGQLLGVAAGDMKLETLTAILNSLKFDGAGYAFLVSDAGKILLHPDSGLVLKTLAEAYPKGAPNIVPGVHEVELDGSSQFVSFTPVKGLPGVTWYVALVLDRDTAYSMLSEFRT
Protocol: as §1

T1 sequence (G3XD24 30-278 R126A): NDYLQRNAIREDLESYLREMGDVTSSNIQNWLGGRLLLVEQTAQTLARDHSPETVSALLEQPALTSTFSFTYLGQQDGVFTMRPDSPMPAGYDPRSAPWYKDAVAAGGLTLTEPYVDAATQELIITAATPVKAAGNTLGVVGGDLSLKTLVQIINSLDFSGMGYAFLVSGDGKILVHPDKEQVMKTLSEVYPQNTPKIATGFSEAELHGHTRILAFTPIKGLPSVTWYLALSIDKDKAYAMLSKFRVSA
T4 sequence (G3XD24 30-278 W128A): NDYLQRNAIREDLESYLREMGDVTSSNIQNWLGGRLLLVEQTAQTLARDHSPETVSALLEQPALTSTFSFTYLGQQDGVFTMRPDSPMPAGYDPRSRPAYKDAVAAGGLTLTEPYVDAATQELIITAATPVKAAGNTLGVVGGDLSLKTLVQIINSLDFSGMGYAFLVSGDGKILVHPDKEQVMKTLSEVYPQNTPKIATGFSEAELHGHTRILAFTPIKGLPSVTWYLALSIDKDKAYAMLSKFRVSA
Sequence of PctB-LBD (Q9HW91 32-276): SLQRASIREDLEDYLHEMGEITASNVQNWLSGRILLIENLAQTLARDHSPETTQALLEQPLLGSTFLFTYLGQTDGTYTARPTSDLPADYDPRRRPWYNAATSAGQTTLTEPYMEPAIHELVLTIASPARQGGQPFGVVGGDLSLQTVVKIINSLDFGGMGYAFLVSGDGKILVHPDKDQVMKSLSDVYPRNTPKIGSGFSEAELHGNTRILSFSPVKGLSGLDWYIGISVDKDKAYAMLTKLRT
T6 sequence (Q9HW91 32-276 E146D): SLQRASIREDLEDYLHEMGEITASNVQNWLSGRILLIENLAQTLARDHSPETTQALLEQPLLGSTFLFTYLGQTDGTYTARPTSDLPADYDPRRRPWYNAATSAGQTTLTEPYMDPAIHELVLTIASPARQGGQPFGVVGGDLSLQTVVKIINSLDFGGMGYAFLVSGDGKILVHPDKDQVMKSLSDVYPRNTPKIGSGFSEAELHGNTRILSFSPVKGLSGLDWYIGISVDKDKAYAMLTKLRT
T3 sequence (G3XD24 30-278 M111A): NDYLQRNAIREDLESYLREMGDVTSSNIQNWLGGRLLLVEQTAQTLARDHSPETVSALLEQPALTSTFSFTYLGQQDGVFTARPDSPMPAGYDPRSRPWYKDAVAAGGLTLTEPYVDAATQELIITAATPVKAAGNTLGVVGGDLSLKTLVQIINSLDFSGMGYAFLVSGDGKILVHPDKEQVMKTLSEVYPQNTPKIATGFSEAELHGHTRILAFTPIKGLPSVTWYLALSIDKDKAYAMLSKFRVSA
T8 sequence (G3XD24 30-278 Y144A): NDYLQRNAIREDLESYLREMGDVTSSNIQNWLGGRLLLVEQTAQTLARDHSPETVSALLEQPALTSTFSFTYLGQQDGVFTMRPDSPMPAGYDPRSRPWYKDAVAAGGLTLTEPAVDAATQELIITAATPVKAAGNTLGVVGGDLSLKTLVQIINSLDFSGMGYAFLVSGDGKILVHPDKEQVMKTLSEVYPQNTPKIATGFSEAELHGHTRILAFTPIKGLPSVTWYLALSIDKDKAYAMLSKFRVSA
T5 sequence (O31671 37-250): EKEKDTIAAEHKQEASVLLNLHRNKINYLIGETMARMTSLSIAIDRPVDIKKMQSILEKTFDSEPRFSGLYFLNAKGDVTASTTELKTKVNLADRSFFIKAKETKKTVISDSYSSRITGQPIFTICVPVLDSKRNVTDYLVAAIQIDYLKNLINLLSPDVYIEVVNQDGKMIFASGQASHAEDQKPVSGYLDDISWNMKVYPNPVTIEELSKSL
T2 sequence (G3XD24 30-278): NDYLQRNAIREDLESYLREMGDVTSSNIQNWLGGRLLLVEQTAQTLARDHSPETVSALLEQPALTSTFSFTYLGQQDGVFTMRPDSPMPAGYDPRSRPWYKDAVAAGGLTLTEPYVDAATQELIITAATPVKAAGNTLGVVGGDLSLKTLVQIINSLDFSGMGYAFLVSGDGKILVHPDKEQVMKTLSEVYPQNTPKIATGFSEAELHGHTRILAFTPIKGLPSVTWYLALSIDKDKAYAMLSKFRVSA
T7 sequence (Q9HW93 32-279 F147Y): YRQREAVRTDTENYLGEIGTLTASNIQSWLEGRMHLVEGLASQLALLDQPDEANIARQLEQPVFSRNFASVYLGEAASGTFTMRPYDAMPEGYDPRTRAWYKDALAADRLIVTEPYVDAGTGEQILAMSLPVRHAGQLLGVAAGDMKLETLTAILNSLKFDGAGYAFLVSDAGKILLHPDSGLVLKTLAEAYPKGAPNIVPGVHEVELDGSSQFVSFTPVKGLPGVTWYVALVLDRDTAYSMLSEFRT

With `CC(=O)C(=O)C(O)CO` (centres unmarked) [DPD/AI-2, 4,5-dihydroxy-2,3-pentanedione] the Kd [1] was 205 µM and 176 µM and 163 µM, the “Concentration of c-di-GMP” value ([2]; 100 μM DPD/AI-2, 30 min) was 25.52 µM and 26.85 µM and 25.80 µM and the “Concentration of c-di-GMP” value ([2]; 100 μM DPD/AI-2, 60 min) was 33.20 µM and 34.39 µM and 33.48 µM. For the same molecule, the “Concentration of c-di-GMP” value ([2]; 200 μM DPD/AI-2, 30 min) was 34.46 µM and 32.43 µM and 32.71 µM, the “Concentration of c-di-GMP” value ([2]; 200 μM DPD/AI-2, 60 min) was 45.28 µM and 43.18 µM and 41.92 µM and the Kd [3] was 49 µM and 33 µM and 41 µM. The Cells per capillary ([4]; 1 μM DPD/AI-2, PAO1, 30 min, buffer capillary subtracted) was 3700 and 4300 and 4700 and 2900 and 5300, the Cells per capillary ([4]; 10 μM DPD/AI-2, PAO1, 30 min, buffer capillary subtracted) was 9900 and 11300 and 14200 and 11400 and 10800 and the Cells per capillary ([4]; 100 μM DPD/AI-2, PAO1, 30 min, buffer capillary subtracted) was 30800 and 31500 and 39700 and 42100 and 39200. For the same molecule, the Cells per capillary ([4]; 1000 μM DPD/AI-2, PAO1, 30 min, buffer capillary subtracted) was 23500 and 25700 and 24700 and 27800 and 19800, the “concentration of optimal chemotactic response” value ([4]; P. aeruginosa PAO1, capillary, 30 min) was 100 µM and the Cells per capillary ([4]; strain ΔPA1608, 100 μM DPD/AI-2, Fig. 1d) was 37200 and 36700 and 39700 and 37700 and 35300. For the same molecule, the Cells per capillary ([4]; strain ΔPA1646, 100 μM DPD/AI-2, Fig. 1d) was 37700 and 38800 and 33600 and 35400 and 35300, the Cells per capillary ([4]; strain ΔPA2573, 100 μM DPD/AI-2, Fig. 1d) was 39200 and 34600 and 39900 and 36000 and 39600 and the Cells per capillary ([4]; strain ΔPA2652, 100 μM DPD/AI-2, Fig. 1d) was 38500 and 34500 and 34200 and 36900 and 36500. For the same molecule, the Cells per capillary ([4]; strain ΔPA2788, 100 μM DPD/AI-2, Fig. 1d) was 33800 and 38800 and 38900 and 36100 and 38600, the Cells per capillary ([4]; strain ΔPA2867, 100 μM DPD/AI-2, Fig. 1d) was 38500 and 34300 and 34100 and 37600 and 33900 and the Cells per capillary ([4]; strain ΔPA2920, 100 μM DPD/AI-2, Fig. 1d) was 36800 and 33100 and 39300 and 35100. For the same molecule, the Cells per capillary ([4]; strain ΔPA4290, 100 μM DPD/AI-2, Fig. 1d) was 35800 and 35100 and 37600 and 35000 and 38600, the Cells per capillary ([4]; strain ΔPA4520, 100 μM DPD/AI-2, Fig. 1d) was 33900 and 37400 and 33500 and 36700 and the Cells per capillary ([4]; strain ΔPA4633, 100 μM DPD/AI-2, Fig. 1d) was 35700 and 39100. For the same molecule, the Cells per capillary ([4]; strain Δaer, 100 μM DPD/AI-2, Fig. 1d) was 36600 and 36200 and 39600 and 36400 and 37100, the Cells per capillary ([4]; strain ΔctpH, 100 μM DPD/AI-2, Fig. 1d) was 38900 and 35200 and 37100 and 35400 and 36800 and the Cells per capillary ([4]; strain ΔmcpS, 100 μM DPD/AI-2, Fig. 1d) was 36800 and 35200 and 37500 and 35600 and 39600. The Cells per capillary ([4]; strain ΔpctA, 100 μM DPD/AI-2, Fig. 1d) was 21400 and 23800 and 20800 and 21700 and 21800, the Cells per capillary ([4]; strain ΔpctB, 100 μM DPD/AI-2, Fig. 1d) was 37100 and 39500 and 37300 and 38300 and 35300 and the Cells per capillary ([4]; strain ΔpctC, 100 μM DPD/AI-2, Fig. 1d) was 35300 and 37100 and 37200 and 36800 and 35800. The Cells per capillary ([4]; strain ΔtlpQ, 100 μM DPD/AI-2, Fig. 1d) was 26100 and 28500 and 25300 and 27300 and 24300, the Kd [5] was 0.12 µM and 0.16 µM and 0.13 µM and the Kd [6] was 14 µM and 21 µM and 17 µM. For the same molecule, the Kd [7] was 25 µM and 24 µM and 18 µM, the Kd [8] was 0.19 to 0.81 µM and the Kd [9] was 0.12 µM and 0.16 µM and 0.15 µM. For the same molecule, the Kd [10] was 0.16 µM, the Kd [11] was 0.22 µM and 0.27 µM and 0.23 µM and the Kd [12] was 0.24 µM and 0.17 µM and 0.21 µM. The Kd [13] was 16 µM and 14 µM and 12 µM and the Kd [14] was 94 µM and 118 µM and 86 µM.
